Source: the supplement of paper PMC10307832

Assays:
Assay in all cases: relative viability (nuclei count vs DMSO), 5 days (fraction); higher = more cells survive
Dasatinib + Linsitinib = compound: Cc1nc(Nc2ncc(C(=O)Nc3c(C)cccc3Cl)s2)cc(N2CCN(CCO)CC2)n1 [Dasatinib] + C[C@]1(O)C[C@@H](c2nc(-c3ccc4ccc(-c5ccccc5)nc4c3)c3c(N)nccn32)C1 [Linsitinib] (partner 1 µM)
How it was run: (§1)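 The day after seeding in 1536-well plates, lung cancer cell lines were treated by pin tool with a single drug, or with a fixed anchor-drug dose together with five library-drug doses (not always all listed) in √10 steps. After 5 days, a combined fix-and-stain solution (final 0.05% Triton X-100, 1% formaldehyde, 1 ug/ml Hoechst) was added. Nuclei counted on 4× images gave relative viability as treated counts over vehicle counts, reported as the median of duplicate plates.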

Dasatinib + Pictilisib = compound: Cc1nc(Nc2ncc(C(=O)Nc3c(C)cccc3Cl)s2)cc(N2CCN(CCO)CC2)n1 [Dasatinib] + CS(=O)(=O)N1CCN(Cc2cc3nc(-c4cccc5[nH]ncc45)nc(N4CCOCC4)c3s2)CC1 [Pictilisib] (partner 1 µM)
How it was run: as §1

ALW-II-49-7 + Alpelisib = compound: Cc1ccc(C(=O)Nc2cccc(C(F)(F)F)c2)cc1Nc1cncc(C(N)=O)c1 [ALW-II-49-7] + Cc1nc(NC(=O)N2CCC[C@H]2C(N)=O)sc1-c1ccnc(C(C)(C)C(F)(F)F)c1 [Alpelisib] (partner 2 µM)
How it was run: as §1

XMD13-2 + Lapatinib = compound: C1CC1C(=O)NC2=NNC3=C2C=CC(=C3)C4=CC(=CC=C4)C(=O)NC5CC5 [XMD13-2] + CS(=O)(=O)CCNCc1ccc(-c2ccc3ncnc(Nc4ccc(OCc5cccc(F)c5)c(Cl)c4)c3c2)o1 [Lapatinib] (partner 2 µM)
How it was run: as §1

Cell Line	relative viability (Dasatinib + Linsitinib; first compound 0.005 µM)	relative viability (Dasatinib + Linsitinib; first compound 0.01581 µM)	relative viability (Dasatinib + Linsitinib; first compound 0.05 µM)	relative viability (Dasatinib + Linsitinib; first compound 0.1581 µM)	relative viability (Dasatinib + Linsitinib; first compound 0.5 µM)	relative viability (Dasatinib + Pictilisib; first compound 0.005 µM)	relative viability (Dasatinib + Pictilisib; first compound 0.01581 µM)	relative viability (Dasatinib + Pictilisib; first compound 0.05 µM)	relative viability (Dasatinib + Pictilisib; first compound 0.1581 µM)	relative viability (Dasatinib + Pictilisib; first compound 0.5 µM)	relative viability (ALW-II-49-7 + Alpelisib; first compound 0.08 µM)	relative viability (ALW-II-49-7 + Alpelisib; first compound 0.253 µM)	relative viability (ALW-II-49-7 + Alpelisib; first compound 0.8 µM)	relative viability (ALW-II-49-7 + Alpelisib; first compound 2.53 µM)	relative viability (ALW-II-49-7 + Alpelisib; first compound 8 µM)	relative viability (XMD13-2 + Lapatinib; first compound 0.05 µM)	relative viability (XMD13-2 + Lapatinib; first compound 0.1581 µM)	relative viability (XMD13-2 + Lapatinib; first compound 0.5 µM)	relative viability (XMD13-2 + Lapatinib; first compound 1.581 µM)	relative viability (XMD13-2 + Lapatinib; first compound 5 µM)
NCI-H322M	1.04	0.703	0.708	0.319	0.196	0.433	0.408	0.37	0.245	0.171	0.724	0.739	0.957	0.759	0.8	0.641	0.528	0.593	0.605	0.724
NCI-H358	0.607	0.484	0.387	0.232	0.277	0.383	0.232	0.287	0.206	0.208	0.718	0.802	0.925	0.965	0.902	0.566	0.463	0.471	0.404	0.322
NCI-H460	0.315	0.229	0.157	0.0338	0.0131	0.195	0.102	0.208	0.189	0.104	0.513	0.542	0.323	0.453	0.395	1.23	0.925	1.27	0.908	0.0203
NCI-H520	0.719	0.598	0.453	0.249	0.19	0.278	0.265	0.213	0.148	0.157	0.799	0.865		0.964	0.954	1.06	0.923	0.924	0.717	0.354
NCI-H596	0.854	0.828	0.784	0.449	0.328	0.349	0.348	0.312	0.475	0.118	0.443	0.513	0.497	0.469	0.438	1.1	0.942	1.22	0.989	1.17
NCI-H647	1.02	0.46	0.627	0.319	0.192	0.258	0.308	0.182	0.11	0.122	0.769	1.13	1.19	0.882	0.557	1.14	1.31	1.22	1.02	0.369
NCI-H650	0.847	0.941	0.892	0.416	0.396	0.862	0.794	0.898	0.497	0.345	1.14	1.08	1.13	0.353	0.669	0.993	1.06	0.94	0.752	0.829
NCI-H661	0.43	0.329	0.31	0.236	0.215	0.269	0.272	0.225	0.274	0.269	0.665	0.691	0.645		0.522	0.423	0.555	0.578	0.519	0.386
NCI-H727	0.233	0.249	0.262	0.13	0.152	0.33	0.267	0.258	0.209	0.176	0.716	0.572	0.538	0.678	0.541	0.836	0.844	1.06	1.01	0.949
NCI-H838	0.832	0.628	0.573	0.243	0.221	0.444	0.297	0.276	0.218	0.189	0.847	1.13	1	1.13	0.987	1.17	1.14	1.13	1.03	0.959
NCI-H1299	0.978	0.996	0.93	0.286	0.146	0.676	0.359	0.313	0.091	0.0817	1.08	0.974	1.11	1.17	0.968	0.908	1.03	0.997	0.958	0.939
NCI-H1355	0.686	0.597	0.667	0.428	0.369	0.452	0.233	0.397	0.297	0.282	0.696	0.867	0.832	0.679	0.645	1.13	0.942	1.05	0.997	1.06
NCI-H1395	1.24	1.05	0.887	0.451	0.343	0.713	0.593	0.552	0.337	0.376	1.22	1.1	1.04	0.307	1.09	1.56	0.997	1.08	0.908	0.945
NCI-H1437	1.02	1.03	1.09	0.859	0.377	0.543	0.408	0.37	0.31	0.222	0.949	1.01		0.901	0.959	0.911	0.849	0.858	0.793	0.683
NCI-H1563	0.961	0.794	0.779	0.761	0.601	0.66	0.564	0.584	0.597	0.558	0.946	0.941	1.01	0.977	0.976	1.06	0.88	0.967	0.839	1.08
NCI-H1651	0.894	0.746	0.551	0.474	0.498	0.716	0.499	0.46	0.423	0.419	1.01	0.832	0.746	0.919	0.835	1.09	0.78	0.906	1.09	0.751
